Tests used:
[1] = test system: GDF8 signaling (GDF pSMAD, MPC11); assay: AlphaScreen SureFire SMAD3 (p-Ser423/425) assay, inhibition of GDF8 signaling; format: cell-based; settings: Mus musculus, MPC-11, p-SMAD-3 (Ser423/425) in cell lysate after GDF8 stimulation
[2] = test system: TGF-β signaling (TGF-β pSMAD, MPC-11); assay: AlphaScreen SureFire SMAD3 (p-Ser423/425) assay, inhibition of TGF-β signaling; format: cell-based; settings: Mus musculus, p-SMAD-3 (Ser423/425) in cell lysate after TGF-β stimulation
Method in brief: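 Phosphorylation of endogenous SMAD-3 at Ser423/425 was quantified with an AlphaScreen SureFire assay. Cells were exposed to compound for about 10 minutes, stimulated with TGF-β, and lysed in 1× Lysis Buffer. Lysate (5 μL) was combined with Reaction/Activation buffer plus Acceptor beads for 2 hours, then Donor beads for 1½ hours, and read on a plate reader.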

Structure (SMILES) | IC50 [1] [nM] | IC50 [2] [nM]
COc1cccc(-c2nn3c(c2-c2ccc4ncsc4c2)OCC3)c1 [Compound 74, 7-(Benzo[d]thiazol-6-yl)-6-(3-methoxyphenyl)-2,3-dihydropyrazolo[5,1-b]oxazole] | 243 | 1040
Cc1cccc(-c2nn3c(c2-c2ccc4ncsc4c2)OCC3)c1 [Compound 39] | 59.6 | 175
COc1cccc(-c2nn3c(c2-c2ccc4ncccc4c2)CCC3)c1 [Compound 48, 6-(2-(3-Methoxyphenyl)-5,6-dihydro-4H-pyrrolo[1,2-b]pyrazol-3-yl)quinoline] | 610 | 4460
Cc1cccc(-c2nn3c(c2-c2ccc4ncnn4c2)CCC3)c1 [Compound 104, 6-(2-(m-Tolyl)-5,6-dihydro-4H-pyrrolo[1,2-b]pyrazol-3-yl)-[1,2,4]triazolo[1,5-a]pyridine] | 26.6 | 83
Fc1ccc(-c2nn3c(c2-c2ccc4cn[nH]c4c2)CCC3)cc1F [Compound 84, 6-(2-(3,4-Difluorophenyl)-5,6-dihydro-4H-pyrrolo[1,2-b]pyrazol-3-yl)-1H-indazole] | 326 | 1610
Cc1cc(-c2nn3c(c2-c2ccc4cn[nH]c4c2)CCC3)ccc1F [Compound 3, 6-(2-(4-Fluoro-3-methylphenyl)-5,6-dihydro-4H-pyrrolo[1,2-b]pyrazol-3-yl)-1H-indazole] | 64.1 | 231
Fc1ccc(-c2nn3c(c2-c2ccc4[nH]ncc4c2)CCC3)c(F)c1Cl [Compound 155, 5-(2-(3-Chloro-2,4-difluorophenyl)-5,6-dihydro-4H-pyrrolo[1,2-b]pyrazol-3-yl)-1H-indazole] | 105 | 1020
FC(F)(F)c1cccc(-c2nn3c(c2-c2ccc4cn[nH]c4c2)OCC3)c1 [Compound 71, 7-(1H-Indazol-6-yl)-6-(3-trifluoromethylphenyl)-2,3-dihydropyrazolo[5,1-b]oxazole] | 179 | 852
FC(F)(F)Oc1cccc(-c2nn3c(c2-c2ccc4nccnc4c2)CCC3)c1 [Compound 126, 6-(2-(3-Trifluoromethoxyphenyl)-5,6-dihydro-4H-pyrrolo[1,2-b]pyrazol-3-yl)quinoxaline] | 156 | 222
Cc1cccc(-c2nn3c(c2-c2ccc4ncsc4c2)CCC3)c1 [Compound 12, 6-(2-(m-Tolyl)-5,6-dihydro-4H-pyrrolo[1,2-b]pyrazol-3-yl)benzo[d]thiazole] | 46.8 | 117
Fc1ccc(-c2nn3c(c2-c2ccc4[nH]ncc4c2)CCC3)cc1OC(F)(F)F [Compound 150, 5-(2-(4-Fluoro-3-trifluoromethoxyphenyl)-5,6-dihydro-4H-pyrrolo[1,2-b]pyrazol-3-yl)-1H-indazole] | 310 | 1320
Fc1c(Cl)cccc1-c1nn2c(c1-c1ccc3nccn3c1)CCC2 [Compound 139, 6-(2-(3-Chloro-2-fluorophenyl)-5,6-dihydro-4H-pyrrolo[1,2-b]pyrazol-3-yl)imidazo[1,2-a]pyridine] | 359 | 874
Cc1cc(-c2nn3c(c2-c2ccc4ncn(C)c4c2)CCC3)ccc1F [Compound 16, 6-(2-(4-Fluoro-3-methylphenyl)-5,6-dihydro-4H-pyrrolo[1,2-b]pyrazol-3-yl)-1-methyl-1H-benzo[d]imidazole] | 65 | 132
COc1cccc(-c2nn3c(c2-c2ccc4ncn(C)c4c2)OCC3)c1 [Compound 72, 6-(3-Methoxyphenyl)-7-(1-methyl-1H-benzo[d]imidazol-6-yl)-2,3-dihydropyrazolo[5,1-b]oxazole] | 233 | 664
Cc1cccc(-c2nn3c(c2-c2ccc4ncccc4c2)OCC3)c1 [Compound 51, 7-(Quinolin-6-yl)-6-(m-tolyl)-2,3-dihydropyrazolo[5,1-b]oxazole] | 373 | 2950
Fc1cc(F)c(-c2nn3c(c2-c2ccc4ncsc4c2)CCC3)cc1F [Compound 116, 6-(2-(2,4,5-Trifluorophenyl)-5,6-dihydro-4H-pyrrolo[1,2-b]pyrazol-3-yl)benzo[d]thiazole] | 27.6 | 186
Cn1cnc2ccc(-c3c(-c4cccc(F)c4)nn4c3CCC4)cc21 [Compound 79, 6-(2-(3-Fluorophenyl)-5,6-dihydro-4H-pyrrolo[1,2-b]pyrazol-3-yl)-1-methyl-1H-benzo[d]imidazole] | 196 | 417
Fc1ccc(-c2nn3c(c2-c2ccc4ncsc4c2)CCC3)cc1Cl [Compound 145, 6-(2-(3-Chloro-4-fluorophenyl)-5,6-dihydro-4H-pyrrolo[1,2-b]pyrazol-3-yl)benzo[d]thiazole] | 194 | 572

Other lines, results leading:

IC50 [1] [nM] | IC50 [2] [nM] | Structure (SMILES)
139 | 302 | Cc1cc(-c2nn3c(c2-c2ccc4nccnc4c2)CCC3)c(F)cc1F [Compound 184, 6-(2-(2,4-Difluoro-5-methylphenyl)-5,6-dihydro-4H-pyrrolo[1,2-b]pyrazol-3-yl)quinoxaline]
7.2 | 29 | COc1ccc(F)c(-c2nn3c(c2-c2ccc4nccnc4c2)CCC3)c1 [Compound 165, 6-(2-(2-Fluoro-5-methoxyphenyl)-5,6-dihydro-4H-pyrrolo[1,2-b]pyrazol-3-yl)quinoxaline]
526 | 2730 | Fc1ccc(-c2nn3c(c2-c2ccc4nccnc4c2)CCC3)c(F)c1Cl [Compound 159, 6-(2-(3-Chloro-2,4-difluorophenyl)-5,6-dihydro-4H-pyrrolo[1,2-b]pyrazol-3-yl)quinoxaline]
177 | 909 | Fc1ccc(F)c(-c2nn3c(c2-c2ccc4nccn4c2)CCC3)c1 [Compound 194, 6-(2-(2,5-Difluorophenyl)-5,6-dihydro-4H-pyrrolo[1,2-b]pyrazol-3-yl)imidazo[1,2-a]pyridine]
178 | 464 | Cc1c(F)ccc(-c2nn3c(c2-c2ccc4nccn4c2)CCC3)c1F [Compound 169, 6-(2-(2,4-Difluoro-3-methylphenyl)-5,6-dihydro-4H-pyrrolo[1,2-b]pyrazol-3-yl)imidazo[1,2-a]pyridine]
133 | 685 | Fc1ccc(-c2nn3c(c2-c2ccc4nccn4c2)CCC3)c(F)c1Cl [Compound 157, 6-(2-(3-Chloro-2,4-difluorophenyl)-5,6-dihydro-4H-pyrrolo[1,2-b]pyrazol-3-yl)imidazo[1,2-a]pyridine]
38.5 | 69.6 | Cc1cc(-c2nn3c(c2-c2ccc4ncnn4c2)CCC3)c(F)cc1F [Compound 185, 6-(2-(2,4-Difluoro-5-methylphenyl)-5,6-dihydro-4H-pyrrolo[1,2-b]pyrazol-3-yl)-[1,2,4]triazolo[1,5-a]pyridine]
862 | 5260 | Fc1ccc(F)c(-c2nn3c(c2-c2ccc4ncccc4c2)CCC3)c1 [Compound 196, 6-(2-(2,5-Difluorophenyl)-5,6-dihydro-4H-pyrrolo[1,2-b]pyrazol-3-yl)quinoline]
26.4 | 334 | Fc1ccc(F)c(-c2nn3c(c2-c2ccc4ncnn4c2)CCC3)c1 [Compound 198, 6-(2-(2,5-Difluorophenyl)-5,6-dihydro-4H-pyrrolo[1,2-b]pyrazol-3-yl)-[1,2,4]triazolo[1,5-a]pyridine]

Source: US10822337B2, “TGF-β inhibitorC” (Rigel Pharmaceuticals, Inc., priority 2015, dated 2020)
